Results from patent publication US8481586B2, “Pyrrolo[2,3-a] carbazoles and use thereof as PIM kinase inhibitors” (Centre National de la Recherche Scientifique, priority 2008, dated 2013).

Legend:
Assay in all cases: kinase panel residual activity test
Assay type in all cases: biochemical
Conditions in all cases: compound at 10 μM
JNK3 = JNK3 (Homo sapiens (Human), UniProt P53779)
Source text: (§1) MKK1, ERK 1, ERK 2, JNK1, JNK2, JNK3, p38a MAPK, p38b MAPK, p38g MAPK, p38s MAPK, ERK8, RSK1, RSK2, PDK1, PKBa, PKBb, SGK1, S6K1, PKA, ROCK2, PRK2, PKCa, PKC zeta, PKD1, MSK1, MNK1, MNK2, MAPKAP-K2, MAPKAP-K3, PRAK, CAMKKa, CAMKKb, CAMK1, SmMLCK, PHK, CHK1, CHK2, GSK3b, CDK2/cyclin A, PLK1, PLK1 (Okadaic acid), Aurora B, Aurora C, AMPK, MARK3, BRSK2, MELK, CK1, CK2, NEK2a, NEK6, NEK7, IKKb, PIM-1, PIM-2, PIM-3, SRPK1, MST2, EF2K, HIPK2, HIPK3, PAK-4, PAK5, PAK6, Src, Lck, CSK.

PAK5 = PAK5 (Homo sapiens (Human), UniProt Q9P286)
Sequence of PAK5 (Q9P286 whole entry): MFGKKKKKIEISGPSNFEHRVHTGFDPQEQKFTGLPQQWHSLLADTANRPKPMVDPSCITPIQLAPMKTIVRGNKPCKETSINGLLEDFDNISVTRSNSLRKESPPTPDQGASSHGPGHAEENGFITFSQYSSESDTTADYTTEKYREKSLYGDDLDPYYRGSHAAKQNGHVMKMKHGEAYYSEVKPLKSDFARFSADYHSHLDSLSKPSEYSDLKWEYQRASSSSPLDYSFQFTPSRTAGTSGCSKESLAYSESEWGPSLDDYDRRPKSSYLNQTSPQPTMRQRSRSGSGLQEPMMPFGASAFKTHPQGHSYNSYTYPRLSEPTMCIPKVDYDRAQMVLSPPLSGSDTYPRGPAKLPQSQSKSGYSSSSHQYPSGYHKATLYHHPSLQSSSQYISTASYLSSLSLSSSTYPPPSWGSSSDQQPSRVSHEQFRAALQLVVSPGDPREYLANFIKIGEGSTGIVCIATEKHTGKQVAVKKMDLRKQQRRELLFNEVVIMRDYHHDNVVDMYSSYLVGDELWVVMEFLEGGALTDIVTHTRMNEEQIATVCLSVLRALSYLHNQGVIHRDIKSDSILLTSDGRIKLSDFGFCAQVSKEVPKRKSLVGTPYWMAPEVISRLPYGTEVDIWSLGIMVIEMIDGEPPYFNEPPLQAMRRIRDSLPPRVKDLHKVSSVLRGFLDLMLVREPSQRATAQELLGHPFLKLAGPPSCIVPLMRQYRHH
Source text: as §1

PRAK = PRAK (Homo sapiens (Human), UniProt Q8IW41)
Source text: as §1

PDK1 = PDK1 (Homo sapiens (Human), UniProt O15530)
Source text: as §1

SmMLCK = tested on: SmMLCK
Source text: as §1

PKC zeta = PKC zeta (Homo sapiens (Human), UniProt Q05513)
Source text: as §1

PKA = PKA (Homo sapiens (Human), UniProt P17612)
Source text: as §1

RSK2 = RSK2 (Homo sapiens (Human), UniProt P51812)
Source text: as §1

MAPKAP-K2 = MAPKAP-K2 (Homo sapiens (Human), UniProt P49137)
Source text: as §1

Src = Src (Homo sapiens (Human), UniProt P12931)
Source text: as §1

CSK = CSK (Homo sapiens (Human), UniProt P41240)
Sequence of CSK (P41240 whole entry, species assumed): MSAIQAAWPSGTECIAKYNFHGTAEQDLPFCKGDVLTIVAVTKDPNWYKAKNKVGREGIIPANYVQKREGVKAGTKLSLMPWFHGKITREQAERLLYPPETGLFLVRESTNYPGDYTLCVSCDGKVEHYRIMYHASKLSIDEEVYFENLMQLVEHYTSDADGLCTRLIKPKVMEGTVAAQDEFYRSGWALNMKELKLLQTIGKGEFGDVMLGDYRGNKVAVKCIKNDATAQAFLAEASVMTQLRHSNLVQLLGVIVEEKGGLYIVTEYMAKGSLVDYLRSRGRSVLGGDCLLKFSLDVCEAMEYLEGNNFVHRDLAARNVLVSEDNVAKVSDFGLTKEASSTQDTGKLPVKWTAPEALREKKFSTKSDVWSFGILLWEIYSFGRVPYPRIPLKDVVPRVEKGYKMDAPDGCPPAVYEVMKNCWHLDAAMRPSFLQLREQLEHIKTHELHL
Source text: as §1

MAPKAP-K3 = MAPKAP-K3 (Homo sapiens (Human), UniProt Q16644)
Source text: as §1

BRSK2 = BRSK2 (Homo sapiens (Human), UniProt Q8IWQ3)
Source text: as §1

PKBa = PKBa (Homo sapiens (Human), UniProt P31749)
Source text: as §1

HIPK3 = HIPK3 (Homo sapiens (Human), UniProt Q9H422)
Source text: as §1

p38a MAPK = p38a MAPK (Homo sapiens (Human), UniProt Q16539)
Sequence of p38a MAPK (Q16539 whole entry): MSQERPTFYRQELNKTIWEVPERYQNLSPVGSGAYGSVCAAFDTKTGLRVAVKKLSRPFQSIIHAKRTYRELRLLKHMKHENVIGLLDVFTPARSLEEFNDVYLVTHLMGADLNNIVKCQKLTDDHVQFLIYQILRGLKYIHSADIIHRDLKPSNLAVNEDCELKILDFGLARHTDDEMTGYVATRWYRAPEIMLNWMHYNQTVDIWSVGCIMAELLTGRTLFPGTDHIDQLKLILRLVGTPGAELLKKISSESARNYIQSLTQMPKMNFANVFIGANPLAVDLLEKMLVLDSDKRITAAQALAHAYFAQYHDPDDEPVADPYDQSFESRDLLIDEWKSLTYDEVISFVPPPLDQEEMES
Source text: as §1

p38g MAPK = p38g MAPK (Homo sapiens (Human), UniProt P53778)
Sequence of p38g MAPK (P53778 whole entry): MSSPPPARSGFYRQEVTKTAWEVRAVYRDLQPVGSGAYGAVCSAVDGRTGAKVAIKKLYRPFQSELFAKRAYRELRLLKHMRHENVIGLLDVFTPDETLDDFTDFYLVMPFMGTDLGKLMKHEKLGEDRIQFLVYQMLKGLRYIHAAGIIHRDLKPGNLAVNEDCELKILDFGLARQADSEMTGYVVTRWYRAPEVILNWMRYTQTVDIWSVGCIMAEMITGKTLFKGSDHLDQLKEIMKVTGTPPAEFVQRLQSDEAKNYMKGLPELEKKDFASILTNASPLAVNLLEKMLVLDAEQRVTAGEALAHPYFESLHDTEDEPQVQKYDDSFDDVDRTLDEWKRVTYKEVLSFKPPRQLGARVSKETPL
Source text: as §1

MNK1 = MNK1 (Homo sapiens (Human), UniProt Q9BUB5)
Source text: as §1

CAMKKa = CAMKKa (Homo sapiens (Human), UniProt Q8N5S9)
Source text: as §1

MELK = MELK (Homo sapiens (Human), UniProt Q14680)
Sequence of MELK (Q14680 whole entry, species assumed): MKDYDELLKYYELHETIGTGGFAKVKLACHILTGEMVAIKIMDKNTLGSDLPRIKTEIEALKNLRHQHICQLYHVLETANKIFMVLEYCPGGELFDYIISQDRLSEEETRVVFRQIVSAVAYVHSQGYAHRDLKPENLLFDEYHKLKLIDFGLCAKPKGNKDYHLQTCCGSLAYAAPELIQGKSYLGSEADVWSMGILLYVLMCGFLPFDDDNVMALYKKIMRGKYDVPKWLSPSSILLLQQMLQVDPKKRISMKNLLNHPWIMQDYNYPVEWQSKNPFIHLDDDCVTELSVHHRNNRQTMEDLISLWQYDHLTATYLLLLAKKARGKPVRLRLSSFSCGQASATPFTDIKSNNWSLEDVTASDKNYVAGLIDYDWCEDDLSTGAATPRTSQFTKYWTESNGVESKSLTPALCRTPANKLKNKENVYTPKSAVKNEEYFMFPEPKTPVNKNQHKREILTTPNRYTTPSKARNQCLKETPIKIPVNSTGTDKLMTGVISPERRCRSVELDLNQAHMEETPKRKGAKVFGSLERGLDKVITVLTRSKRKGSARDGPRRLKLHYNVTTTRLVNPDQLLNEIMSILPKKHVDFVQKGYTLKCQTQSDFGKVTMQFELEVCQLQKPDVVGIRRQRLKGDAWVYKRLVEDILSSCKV
Source text: as §1

PRK2 = PRK2 (Homo sapiens (Human), UniProt Q16513)
Sequence of PRK2 (Q16513 whole entry, species assumed): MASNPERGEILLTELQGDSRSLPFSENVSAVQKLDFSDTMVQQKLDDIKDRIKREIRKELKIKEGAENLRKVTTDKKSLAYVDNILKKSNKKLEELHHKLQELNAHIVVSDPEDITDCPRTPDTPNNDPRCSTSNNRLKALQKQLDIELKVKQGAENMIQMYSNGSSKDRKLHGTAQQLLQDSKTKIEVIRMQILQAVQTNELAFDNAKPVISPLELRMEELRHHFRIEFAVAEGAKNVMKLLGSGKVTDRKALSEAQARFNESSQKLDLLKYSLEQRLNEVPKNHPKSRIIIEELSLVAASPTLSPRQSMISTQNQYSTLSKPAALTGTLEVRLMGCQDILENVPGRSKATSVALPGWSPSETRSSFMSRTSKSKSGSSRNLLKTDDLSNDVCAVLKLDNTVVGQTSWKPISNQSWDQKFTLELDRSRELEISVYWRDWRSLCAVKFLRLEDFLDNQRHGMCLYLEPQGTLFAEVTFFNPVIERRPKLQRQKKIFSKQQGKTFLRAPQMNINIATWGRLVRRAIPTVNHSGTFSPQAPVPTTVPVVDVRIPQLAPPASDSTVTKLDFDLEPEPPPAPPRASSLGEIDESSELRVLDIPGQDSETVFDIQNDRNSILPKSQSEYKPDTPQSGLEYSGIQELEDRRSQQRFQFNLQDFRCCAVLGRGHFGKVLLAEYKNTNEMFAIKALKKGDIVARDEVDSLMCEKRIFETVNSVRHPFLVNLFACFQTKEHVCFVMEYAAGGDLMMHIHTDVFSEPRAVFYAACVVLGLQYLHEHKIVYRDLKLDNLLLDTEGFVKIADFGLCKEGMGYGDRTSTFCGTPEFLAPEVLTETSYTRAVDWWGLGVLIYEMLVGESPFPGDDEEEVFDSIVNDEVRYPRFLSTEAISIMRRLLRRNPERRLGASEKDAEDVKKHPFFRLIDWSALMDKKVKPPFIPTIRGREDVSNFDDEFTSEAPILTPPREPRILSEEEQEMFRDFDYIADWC
Source text: as §1

MNK2 = MNK2 (Homo sapiens (Human), UniProt Q9HBH9)
Source text: as §1

S6K1 = S6K1 (Homo sapiens (Human), UniProt P23443)
Sequence of S6K1 (P23443 whole entry, species assumed): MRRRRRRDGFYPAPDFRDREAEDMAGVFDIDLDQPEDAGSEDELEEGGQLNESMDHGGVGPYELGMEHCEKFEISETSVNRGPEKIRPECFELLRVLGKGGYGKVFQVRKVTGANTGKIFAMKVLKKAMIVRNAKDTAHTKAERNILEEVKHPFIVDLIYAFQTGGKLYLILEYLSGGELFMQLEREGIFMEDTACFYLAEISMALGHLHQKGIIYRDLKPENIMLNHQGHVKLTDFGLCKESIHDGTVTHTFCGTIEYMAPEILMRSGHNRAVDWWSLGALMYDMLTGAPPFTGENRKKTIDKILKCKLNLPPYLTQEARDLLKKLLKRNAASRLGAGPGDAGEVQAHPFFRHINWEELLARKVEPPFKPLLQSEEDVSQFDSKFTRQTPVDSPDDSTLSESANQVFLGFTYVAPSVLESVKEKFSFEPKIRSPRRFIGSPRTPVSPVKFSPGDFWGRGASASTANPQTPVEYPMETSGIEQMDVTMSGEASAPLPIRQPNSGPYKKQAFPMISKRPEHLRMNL
Source text: as §1

ERK1 = ERK1 (Homo sapiens (Human), UniProt P27361)
Source text: as §1

PAK4 = PAK4 (Homo sapiens (Human), UniProt O96013)
Source text: as §1

NEK6 = NEK6 (Homo sapiens (Human), UniProt Q9HC98)
Source text: as §1

PKD1 = PKD1 (Homo sapiens (Human), UniProt Q15139)
Sequence of PKD1 (Q15139 whole entry): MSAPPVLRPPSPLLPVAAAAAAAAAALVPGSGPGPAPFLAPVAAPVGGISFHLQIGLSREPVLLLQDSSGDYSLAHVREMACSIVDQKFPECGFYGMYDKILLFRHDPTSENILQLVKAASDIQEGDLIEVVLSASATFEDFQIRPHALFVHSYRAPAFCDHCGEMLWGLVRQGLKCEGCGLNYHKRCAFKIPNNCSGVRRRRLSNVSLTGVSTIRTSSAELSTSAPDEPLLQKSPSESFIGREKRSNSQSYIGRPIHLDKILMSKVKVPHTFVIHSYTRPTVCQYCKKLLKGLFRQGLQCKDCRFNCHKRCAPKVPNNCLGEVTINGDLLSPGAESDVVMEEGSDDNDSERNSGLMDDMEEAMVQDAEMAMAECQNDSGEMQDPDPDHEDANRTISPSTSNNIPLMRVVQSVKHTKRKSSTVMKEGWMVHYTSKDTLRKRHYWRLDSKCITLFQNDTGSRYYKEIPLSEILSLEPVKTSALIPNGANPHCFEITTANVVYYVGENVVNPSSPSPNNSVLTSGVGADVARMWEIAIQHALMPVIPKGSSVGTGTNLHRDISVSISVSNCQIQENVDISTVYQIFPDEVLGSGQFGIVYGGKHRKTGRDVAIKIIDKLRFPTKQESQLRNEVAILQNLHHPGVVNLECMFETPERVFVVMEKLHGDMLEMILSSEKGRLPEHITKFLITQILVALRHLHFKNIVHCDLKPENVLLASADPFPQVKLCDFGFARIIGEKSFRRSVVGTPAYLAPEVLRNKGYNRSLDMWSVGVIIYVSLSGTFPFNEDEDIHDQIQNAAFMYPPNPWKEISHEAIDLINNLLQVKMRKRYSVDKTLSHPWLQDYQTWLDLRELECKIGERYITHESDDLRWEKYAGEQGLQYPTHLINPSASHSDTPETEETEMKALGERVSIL
Source text: as §1

GSK3b = GSK3b (Homo sapiens (Human), UniProt P49841)
Source text: as §1

JNK2 = JNK2 (Homo sapiens (Human), UniProt P45984)
Source text: as §1

CHK2 = CHK2 (Homo sapiens (Human), UniProt O96017)
Source text: as §1

ERK8 = ERK8 (Homo sapiens (Human), UniProt Q8TD08)
Source text: as §1

Aurora B = Aurora B (Homo sapiens (Human), UniProt Q96GD4)
Source text: as §1

PLK1 (Okadaic acid) = PLK1 (Okadaic acid) (Homo sapiens (Human), UniProt P53350)
Source text: as §1

EF2K = EF2K (Homo sapiens (Human), UniProt O00418)
Source text: as §1

p38b MAPK = p38b MAPK (Homo sapiens (Human), UniProt Q15759)
Source text: as §1

IKKb = IKKb (Homo sapiens (Human), UniProt O14920)
Source text: as §1

CAMK1 = CAMK1 (Homo sapiens (Human), UniProt Q14012)
Source text: as §1

Structure (SMILES) | remaining activity at 10 µM (JNK3) [%] | remaining activity at 10 µM (PAK5) [%] | remaining activity at 10 µM (PRAK) [%] | remaining activity at 10 µM (PDK1) [%] | % residual activity SmMLCK (SmMLCK) [%] | remaining activity at 10 µM (PKC zeta) [%] | remaining activity at 10 µM (PKA) [%] | remaining activity at 10 µM (RSK2) [%] | remaining activity at 10 µM (MAPKAP-K2) [%] | remaining activity at 10 µM (Src) [%] | remaining activity at 10 µM (CSK) [%] | remaining activity at 10 µM (MAPKAP-K3) [%] | remaining activity at 10 µM (BRSK2) [%] | remaining activity at 10 µM (PKBa) [%] | remaining activity at 10 µM (HIPK3) [%] | remaining activity at 10 µM (p38a MAPK) [%] | remaining activity at 10 µM (p38g MAPK) [%] | remaining activity at 10 µM (MNK1) [%] | remaining activity at 10 µM (CAMKKa) [%] | remaining activity at 10 µM (MELK) [%] | other results
O=Cc1c[nH]c2c1ccc1c3ccccc3[nH]c12 [Example 3, 1,10-dihydropyrrolo[2,3-a]carbazole-3-carbaldehyde] | 113 | 87 | 72 | 76 | 60 | 83 | 60 | 124 | 84 | 85 | 74 | 69 | 22 | 96 | 64 | 102 | 74 | 27 | 42 | 61 | remaining activity at 10 µM (PRK2): 31%; remaining activity at 10 µM (MNK2): 55%; remaining activity at 10 µM (S6K1): 38%; remaining activity at 10 µM (ERK1): 87%; remaining activity at 10 µM (PAK4): 88%; remaining activity at 10 µM (NEK6): 78%; remaining activity at 10 µM (PKD1): 28%; remaining activity at 10 µM (GSK3b): 88%; remaining activity at 10 µM (JNK2): 128%; remaining activity at 10 µM (CHK2): 38%; remaining activity at 10 µM (ERK8): 20%; remaining activity at 10 µM (Aurora B): 68%; remaining activity at 10 µM (PLK1 (Okadaic acid)): 83%; remaining activity at 10 µM (EF2K): 90%; remaining activity at 10 µM (p38b MAPK): 80%; remaining activity at 10 µM (IKKb): 71%; remaining activity at 10 µM (CAMK1): 71%
NC(=O)c1c[nH]c2c1ccc1c3ccccc3[nH]c12 [Example 5, 1,10-dihydropyrrolo[2,3-a]carbazole-3-carboxamide] | 104 | 70 | 85 | 67 | 69 | 78 | 80 | 97 | 92 | 96 | 65 | 75 | 32 | 97 | 87 | 96 | 96 | 19 | 75 | 80 | remaining activity at 10 µM (PRK2): 54%; remaining activity at 10 µM (MNK2): 57%; remaining activity at 10 µM (S6K1): 72%; remaining activity at 10 µM (ERK1): 71%; remaining activity at 10 µM (PAK4): 16%; remaining activity at 10 µM (NEK6): 83%; remaining activity at 10 µM (PKD1): 19%; remaining activity at 10 µM (GSK3b): 91%; remaining activity at 10 µM (JNK2): 115%; remaining activity at 10 µM (CHK2): 44%; remaining activity at 10 µM (ERK8): 46%; remaining activity at 10 µM (Aurora B): 65%; remaining activity at 10 µM (PLK1 (Okadaic acid)): 79%; remaining activity at 10 µM (EF2K): 92%; remaining activity at 10 µM (p38b MAPK): 92%; remaining activity at 10 µM (IKKb): 80%; remaining activity at 10 µM (CAMK1): 80%
c1ccc2c(c1)[nH]c1c2ccc2cc[nH]c21 [Example 2, 1,10-dihydropyrrolo[2,3-a]carbazole] | 108 | 82 | 97 | 86 | 86 | 91 | 95 | 129 | 118 | 98 | 98 | 89 | 58 | 120 | 97 | 108 | 111 | 69 | 76 | 93 | remaining activity at 10 µM (PRK2): 95%; remaining activity at 10 µM (MNK2): 95%; remaining activity at 10 µM (S6K1): 89%; remaining activity at 10 µM (ERK1): 108%; remaining activity at 10 µM (PAK4): 84%; remaining activity at 10 µM (NEK6): 90%; remaining activity at 10 µM (PKD1): 83%; remaining activity at 10 µM (GSK3b): 111%; remaining activity at 10 µM (JNK2): 118%; remaining activity at 10 µM (CHK2): 58%; remaining activity at 10 µM (ERK8): 55%; remaining activity at 10 µM (Aurora B): 67%; remaining activity at 10 µM (PLK1 (Okadaic acid)): 103%; remaining activity at 10 µM (EF2K): 101%; remaining activity at 10 µM (p38b MAPK): 100%; remaining activity at 10 µM (IKKb): 106%; remaining activity at 10 µM (CAMK1): 29%
